In PMC5018819 (Scientific Reports, 2016):
Like-named read-outs stand apart in the source and are kept apart here.

Experiments:
P. falciparum 3D7 = test: microscopy of tightly synchronized asexual blood stage culture; type: cell-based, Plasmodium falciparum; conditions: EC90; synchronized ring stage parasites 6–12 hours post invasion
Procedure: P. falciparum 3D7 was cultured according to standard methods, and a 6 hours window was achieved by a combination of Percoll and sorbitol synchronizations. Briefly, schizonts and late trophozoites were isolated from earlier stages according to their density by centrifugation on a continuous gradient of 60% Percoll. The resulting schizonts were allowed to invade uninfected red blood cells for 6 hours and newly infected red blood cells were subjected to a 5% sorbitol treatment for 10 minutes at 37 °C. […] Thin blood smears were Giemsa stained every 6 hours until an entire intraerythrocytic cycle was completed.

HsCKα1 [1] = target: T1, HsCKα1 (Homo sapiens, UniProt P35790); test: IC50 determination, spectrophotometric CK/EK enzyme assay; type: biochemical; conditions: 0.5 mM each substrate
T1 construct: made in house
Procedure: (§1) A continuous spectrophotometric 96-well plate assay was established for CK and EK activity based on an assay described. […] The reaction was initiated by addition of enzyme or substrate, as appropriate, and the rate of reaction was monitored by following the decrease in absorbance at 341 nm for 10 min at room temperature using a Thermo Multiska spectrophotometer. Experiments were carried out to ensure that coupling enzymes were not rate-limiting under any of the conditions used and control experiments lacking substrates and/or enzyme were carried out to correct for any background rate.
(§2) The enzyme was pre-incubated for 5 min with varying concentrations of inhibitor prior to reaction being started by addition of 0.5 mM each substrate. The IC50 values were estimated using Grafit 5 (Erithacus Software Ltd).

PfCK [2] = target: T2, PfCK (Plasmodium falciparum, UniProt Q8IM71); test: as above; type: biochemical; conditions: for IC50: 0.5 mM each substrate
T2 construct: made in house
T2 sequence (Q8IM71 1-440): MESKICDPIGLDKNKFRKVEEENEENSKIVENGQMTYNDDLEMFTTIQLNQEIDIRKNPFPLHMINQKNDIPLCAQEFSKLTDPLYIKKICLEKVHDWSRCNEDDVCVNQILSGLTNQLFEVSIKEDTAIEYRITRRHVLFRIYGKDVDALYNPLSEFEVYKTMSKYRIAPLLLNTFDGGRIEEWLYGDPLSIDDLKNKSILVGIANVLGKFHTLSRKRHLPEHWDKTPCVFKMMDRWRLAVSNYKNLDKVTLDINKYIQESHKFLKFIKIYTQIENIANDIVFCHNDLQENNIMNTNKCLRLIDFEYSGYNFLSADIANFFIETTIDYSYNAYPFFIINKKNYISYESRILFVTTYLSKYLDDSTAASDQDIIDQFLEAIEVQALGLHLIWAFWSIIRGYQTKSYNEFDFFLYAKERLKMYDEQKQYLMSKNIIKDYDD
Procedure: as §1, §2

PfEK = target: T3, PfEK (Plasmodium falciparum, UniProt Q8IIB7); test: IC50 determination, spectrophotometric EK enzyme assay; type: biochemical, P. falciparum; conditions: for IC50: Etn as substrate, 0.5 mM each substrate
T3 sequence (Q8IIB7 2-420): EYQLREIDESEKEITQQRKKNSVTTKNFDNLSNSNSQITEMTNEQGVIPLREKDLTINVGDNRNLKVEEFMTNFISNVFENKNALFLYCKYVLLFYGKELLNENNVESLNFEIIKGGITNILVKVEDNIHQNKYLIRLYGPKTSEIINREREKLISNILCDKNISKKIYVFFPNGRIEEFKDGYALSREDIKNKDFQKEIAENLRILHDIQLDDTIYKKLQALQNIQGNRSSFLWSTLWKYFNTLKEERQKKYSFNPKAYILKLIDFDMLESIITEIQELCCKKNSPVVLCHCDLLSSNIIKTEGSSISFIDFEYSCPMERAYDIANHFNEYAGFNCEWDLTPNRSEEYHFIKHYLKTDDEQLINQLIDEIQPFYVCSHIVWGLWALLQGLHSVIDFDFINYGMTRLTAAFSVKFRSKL
Procedure: as §1, §2

HsCKα1 [3] = target: T1, HsCKα1; test: Ki determination and mode of inhibition; type: biochemical; conditions: for α, HsCKα1, ATP / α, HsCKα1, Cho: alpha factor of mixed inhibition
Procedure: as §1
(§3) Activity was measured at 3–4 different concentrations of inhibitor and a fixed concentration of one substrate (as specified in the standard assay) while the second substrate was varied. GraphPad Prism 6 (GraphPad Software Inc.) was used to fit data to different inhibition models with the best fit being determined by Aike’s Informative Criteria. Kis were estimated from the best-fit model and results were reinforced by linear re-plots of the data (Lineweaver Burke, Dixon, s/v against I)[38].

PfCK [4] = target: T2, PfCK; test: Ki determination and mode of inhibition; type: biochemical
Procedure: as §1, §3

HsCKα1 [5] = target: T1, HsCKα1; test: Kd by tryptophan fluorescence quenching; type: binding; conditions: 25 °C, enzyme 1 μM
Procedure: (§4) Compounds BR23 and BR25 were prepared in 100% DMSO. The Kds for compounds BR23 and BR25 against HsCKα1 and PfCK were measured by monitoring the quenching of tryptophan fluorescence. All experiments were carried out in a Cary Eclipse spectrofluorometer at 25 °C with the enzymes at 1 μM, and concentrations of compounds varying from 0.05 to 8 μM for HsCKα1, and from 0.05 to 16 μM for PfCK in 25 mM Tris, 150 mM NaCl, pH 7.5. Fluorescence emission spectra were recorded in the 300–400 nm range with an excitation wavelength of 280 nm, with slit width of 5 nm. Controls were determined by incubating the enzymes with equivalent amounts of DMSO. As indicated previously, data analysis was performed in Prism (GraphPad software) considering a model with a single binding site (Eq. 1), where F0 is the intrinsic fluorescence of the enzyme in the absence of quencher (Q), F1 is the observed fluorescence at a given quencher concentration, fa is the fractional degree of fluorescence, and Kd is the dissociation constant.

PfCK [6] = target: T2, PfCK; test: Kd by tryptophan fluorescence quenching; type: binding; conditions: for Kd: tryptophan fluorescence quenching, 25 °C, enzyme 1 μM
Procedure: as §4

P. falciparum = test system: P. falciparum; set-up: method as in PMID 25089811; conditions: blood stages of the parasite, in vitro; read-out: IC50 against P. falciparum; cited from earlier work
[7] = Etn as substrate, read-out: IC50 HsCK, Etn
[8] = read-out: IC50 HsCK, Cho, Cho as substrate
[9] = Etn as substrate, read-out: IC50 PfCK, Etn
[10] = read-out: IC50 PfCK, Cho, Cho as substrate
[11] = ATP as variable substrate, read-out: Ki, HsCKα1, ATP
[12] = read-out: Ki, HsCKα1, Cho, Cho as variable substrate
[13] = read-out: Ki, HsCKα1, with respect to Cho, mixed inhibition, approximate value
[14] = ATP as variable substrate, read-out: Ki, PfCK, ATP
[15] = Etn as variable substrate, read-out: Ki, PfCK, Etn
[16] = alpha factor of mixed inhibition, Cho as variable substrate
[17] = competitive inhibition, approximate value, read-out: Ki, PfCK, with respect to Etn
[18] = read-out: Ki, PfCK, Cho, Cho as variable substrate
[19] = read-out: Ki, PfCK, against Cho, mixed inhibition, approximate value

T1 sequence (P35790 whole entry): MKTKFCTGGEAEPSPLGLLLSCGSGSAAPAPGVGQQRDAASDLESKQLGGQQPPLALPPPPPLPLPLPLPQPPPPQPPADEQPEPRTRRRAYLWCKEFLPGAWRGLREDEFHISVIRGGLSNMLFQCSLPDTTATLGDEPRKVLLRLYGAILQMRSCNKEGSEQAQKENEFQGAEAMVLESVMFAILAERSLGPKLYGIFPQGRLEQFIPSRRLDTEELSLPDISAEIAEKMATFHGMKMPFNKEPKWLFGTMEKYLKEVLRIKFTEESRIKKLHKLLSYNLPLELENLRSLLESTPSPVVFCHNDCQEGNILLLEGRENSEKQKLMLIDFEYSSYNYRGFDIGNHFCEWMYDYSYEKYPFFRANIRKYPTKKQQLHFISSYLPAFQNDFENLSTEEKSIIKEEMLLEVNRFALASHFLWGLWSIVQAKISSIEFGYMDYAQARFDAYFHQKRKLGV

SMILES | effect on parasite development (P. falciparum 3D7) | IC50 (HsCKα1 [1]; [7]) [nM] | IC50 (HsCKα1 [1]; [8]) [nM] | inhibition towards PfCKs choline kinase activity (in words) (PfCK [2]; Cho as substrate) | IC50 (PfCK [2]; [9]) [µM] | IC50 (PfCK [2]; [10]) [µM] | inhibition towards PfEK (in words) (PfEK) | IC50 (PfEK) [µM] | mode of inhibition, HsCKα1, ATP (HsCKα1 [3]; ATP as variable substrate) | Ki (HsCKα1 [3]; [11]) [nM] | mode of inhibition, HsCKα1, Cho (HsCKα1 [3]; Cho as variable substrate) | α, HsCKα1, ATP (HsCKα1 [3]; ATP as variable substrate) | α, HsCKα1, Cho (HsCKα1 [3]; Cho as variable substrate) | Ki (HsCKα1 [3]; [12]) [nM] | Ki (HsCKα1 [3]; [13]) [nM] | mode of inhibition, PfCK, ATP (PfCK [4]; ATP as variable substrate) | Ki (PfCK [4]; [14]) [µM] | mode of inhibition, PfCK, Cho (PfCK [4]; Cho as variable substrate) | mode of inhibition, PfCK, Etn (PfCK [4]; Etn as variable substrate) | Ki (PfCK [4]; [15]) [µM] | further results
CN(C)c1cc[n+](Cc2ccc(CCCCc3ccc(C[n+]4ccc(N5CCCC5)cc4)cc3)cc2)cc1.[Br-].[Br-] [BR25] | arrest of parasite development | 180 | 560 | moderate inhibition | 6 | 103 | neither BR23 nor BR25 showed any inhibition | > 500 | Mixed | 4100 | Mixed | 0.49 | 139 | 100 | ~100 | Mixed | 65.5 | Mixed | Competitive | 4 | α, PfCK, ATP (PfCK [4]; alpha factor of mixed inhibition, ATP as variable substrate): 2.37; α, PfCK, Cho (PfCK [4]; [16]): 2.025; Ki (PfCK [4]; [17]): ~4 µM; Ki (PfCK [4]; [18]): 31.9 µM; Ki (PfCK [4]; [19]): ~35 µM; Kd (HsCKα1 [5]): 352 ± 20 nM; affinity for PfCK relative to BR23 (PfCK [6]; ratio of Kds): 3 fold; Kd (PfCK [6]): 415 ± 81 nM; IC50 (P. falciparum): 2 nM
CN(C)c1cc[n+](Cc2ccc(-c3ccc(C[n+]4ccc(N5CCCC5)cc4)cc3)cc2)cc1.[Br-].[Br-] [BR23] | arrest of parasite development | 230 | 580 | moderate inhibition | 12 | 276 | neither BR23 nor BR25 showed any inhibition | > 500 | Mixed | 3700 | Mixed | 0.73 | 59 | 114 | ~100 | Competitive | 116 | Mixed | Competitive | 4.1 | Ki (HsCKα1 [3]; mixed inhibition, approximate value, read-out: Ki, HsCKα1, with respect to ATP): ~4000 nM; α, PfCK, Cho (PfCK [4]; [16]): 3.915; Ki (PfCK [4]; [17]): ~4 µM; Ki (PfCK [4]; [18]): 38.2 µM; Ki (PfCK [4]; [19]): ~35 µM; Kd (HsCKα1 [5]): 521 ± 200 nM; Kd (PfCK [6]): 1400 nM; IC50 (P. falciparum): 3 nM
